Reference: PubChem BioAssay AID2060889 (Molecular Pharmacology Branch, DTP, NCI, 2025)

System: LG0567-F671-PDC complex spheroids viability
Test: Anticancer human tumor LG0567-F671-PDC patient-derived lung adenocarcinoma cell line growth inhibition [RAS]
Conditions: for IC50: curve of first compound; for viability, T/C: stronger effect = lower value; active = viability on the fitted dose curve at most 10% of control; inactive = the rest
Summary of the method: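 Multi-cell-type spheroids: tumor cells plus HUVEC endothelial cells and mesenchymal stem cells. RAS-pathway inhibitors were combined with targeted agents, each dosed in half-log steps down from clinical Cmax, or from 10 microM when Cmax was unknown.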

[1] = second compound 0.000949 µM, first compound 0.00316 µM
[2] = second compound 0.000949 µM, first compound 0.01 µM
[3] = second compound 0.000949 µM, first compound 0.0316 µM
[4] = second compound 0.000949 µM, first compound 0.1 µM
[5] = second compound 0.000949 µM, first compound 0.316 µM
[6] = second compound 0.000949 µM, first compound 1 µM
[7] = second compound 0.003 µM, first compound 0.00316 µM
[8] = second compound 0.003 µM, first compound 0.01 µM
[9] = second compound 0.003 µM, first compound 0.0316 µM
[10] = second compound 0.003 µM, first compound 0.1 µM
[11] = second compound 0.003 µM, first compound 0.316 µM
[12] = second compound 0.003 µM, first compound 1 µM
[13] = second compound 0.00949 µM, first compound 0.00316 µM
[14] = second compound 0.00949 µM, first compound 0.01 µM
[15] = second compound 0.00949 µM, first compound 0.0316 µM
[16] = second compound 0.00949 µM, first compound 0.1 µM
[17] = second compound 0.00949 µM, first compound 0.316 µM
[18] = second compound 0.00949 µM, first compound 1 µM
[19] = second compound 0.03 µM, first compound 0.00316 µM
[20] = second compound 0.03 µM, first compound 0.01 µM
[21] = second compound 0.03 µM, first compound 0.0316 µM
[22] = second compound 0.03 µM, first compound 0.1 µM
[23] = second compound 0.03 µM, first compound 0.316 µM
[24] = second compound 0.03 µM, first compound 1 µM
[25] = second compound 0.0949 µM, first compound 0.00316 µM
[26] = second compound 0.0949 µM, first compound 0.01 µM
[27] = second compound 0.0949 µM, first compound 0.0316 µM
[28] = second compound 0.0949 µM, first compound 0.1 µM
[29] = second compound 0.0949 µM, first compound 0.316 µM
[30] = second compound 0.0949 µM, first compound 1 µM
[31] = second compound 0.3 µM, first compound 0.00316 µM
[32] = second compound 0.3 µM, first compound 0.01 µM
[33] = second compound 0.3 µM, first compound 0.0316 µM
[34] = second compound 0.3 µM, first compound 0.1 µM
[35] = second compound 0.3 µM, first compound 0.316 µM
[36] = second compound 0.3 µM, first compound 1 µM
[37] = second compound 0.000949 µM, first compound 0.000949 µM
[38] = second compound 0.000949 µM, first compound 0.003 µM
[39] = second compound 0.000949 µM, first compound 0.00949 µM
[40] = second compound 0.000949 µM, first compound 0.03 µM
[41] = second compound 0.000949 µM, first compound 0.0949 µM
[42] = second compound 0.000949 µM, first compound 0.3 µM
[43] = second compound 0.003 µM, first compound 0.000949 µM
[44] = second compound 0.003 µM, first compound 0.003 µM
[45] = second compound 0.003 µM, first compound 0.00949 µM
[46] = second compound 0.003 µM, first compound 0.03 µM
[47] = second compound 0.003 µM, first compound 0.0949 µM
[48] = second compound 0.003 µM, first compound 0.3 µM
[49] = second compound 0.00949 µM, first compound 0.000949 µM
[50] = second compound 0.00949 µM, first compound 0.003 µM
[51] = second compound 0.00949 µM, first compound 0.00949 µM
[52] = second compound 0.00949 µM, first compound 0.03 µM
[53] = second compound 0.00949 µM, first compound 0.0949 µM
[54] = second compound 0.00949 µM, first compound 0.3 µM
[55] = second compound 0.03 µM, first compound 0.000949 µM
[56] = second compound 0.03 µM, first compound 0.003 µM
[57] = second compound 0.03 µM, first compound 0.00949 µM
[58] = second compound 0.03 µM, first compound 0.03 µM
[59] = second compound 0.03 µM, first compound 0.0949 µM
[60] = second compound 0.03 µM, first compound 0.3 µM
[61] = second compound 0.0949 µM, first compound 0.000949 µM
[62] = second compound 0.0949 µM, first compound 0.003 µM
[63] = second compound 0.0949 µM, first compound 0.00949 µM
[64] = second compound 0.0949 µM, first compound 0.03 µM
[65] = second compound 0.0949 µM, first compound 0.0949 µM
[66] = second compound 0.0949 µM, first compound 0.3 µM
[67] = second compound 0.3 µM, first compound 0.000949 µM
[68] = second compound 0.3 µM, first compound 0.003 µM
[69] = second compound 0.3 µM, first compound 0.00949 µM
[70] = second compound 0.3 µM, first compound 0.03 µM
[71] = second compound 0.3 µM, first compound 0.0949 µM
[72] = second compound 0.3 µM, first compound 0.3 µM
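Also: spheroids exposed to compound for seven days before readout.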
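For IC50 in this document: luminescence signal used as a proxy for viable cells.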

C=CC(=O)N1CCN(c2nc(OCC3CCCN3C)nc3c(F)c(-c4nc(N)cc(C)c4C(F)(F)F)c(Cl)cc23)C(C)C1 (stereo not drawn) + CCn1c(-c2cc(N3CCN(C)CC3)cnc2C(C)OC)c2c3cc(ccc31)-c1csc(n1)CC(NC(=O)C1CC1C)C(=O)N1CCCC(N1)C(=O)OCC(C)(C)C2
active: viability, T/C [1] 9.35% | viability, T/C [2] 9.1% | viability, T/C [3] 8% | viability, T/C [4] 8.66% | viability, T/C [5] 7.95% | viability, T/C [6] 7.17% | viability, T/C [7] 5.52% | viability, T/C [8] 6.02% | viability, T/C [9] 5.86% | viability, T/C [10] 7.54% | viability, T/C [11] 7.84% | viability, T/C [12] 6.72% | viability, T/C [13] 5.09% | viability, T/C [14] 4.57% | viability, T/C [15] 5.64% | viability, T/C [16] 4.78% | viability, T/C [17] 5.6% | viability, T/C [18] 4.86% | viability, T/C [19] 3.64% | viability, T/C [20] 3.58% | viability, T/C [21] 3.59% | viability, T/C [22] 3.48% | viability, T/C [23] 4.15% | viability, T/C [24] 3.55% | viability, T/C [25] 3.37% | viability, T/C [26] 3.02% | viability, T/C [27] 2.73% | viability, T/C [28] 2.71% | viability, T/C [29] 2.59% | viability, T/C [30] 3.04% | viability, T/C [31] 2.73% | viability, T/C [32] 2.79% | viability, T/C [33] 2.44% | viability, T/C [34] 2.81% | viability, T/C [35] 2.66% | viability, T/C [36] 2.96%
< 3.16 nM: IC50 (second compound 0.000949 µM) | IC50 (second compound 0.003 µM) | IC50 (second compound 0.00949 µM) | IC50 (second compound 0.03 µM) | IC50 (second compound 0.0949 µM) | IC50 (second compound 0.3 µM)

CC1(C)CCC(Nc2ncc(C(F)(F)F)c(-c3c[nH]c4c(P(C)(C)=O)c(C#N)ccc34)n2)CN1 (stereo not drawn) + CCn1c(-c2cc(N3CCN(C)CC3)cnc2C(C)OC)c2c3cc(ccc31)-c1csc(n1)CC(NC(=O)C1CC1C)C(=O)N1CCCC(N1)C(=O)OCC(C)(C)C2
active: viability, T/C [43] 9.04% | viability, T/C [44] 8.93% | viability, T/C [45] 9.61% | viability, T/C [46] 8.68% | viability, T/C [47] 10.7% | viability, T/C [48] 11.1% | viability, T/C [49] 5.65% | viability, T/C [50] 5.79% | viability, T/C [51] 5.79% | viability, T/C [52] 6.44% | viability, T/C [53] 6.98% | viability, T/C [54] 7.15% | viability, T/C [55] 4.09% | viability, T/C [56] 4.19% | viability, T/C [57] 4.86% | viability, T/C [58] 4.81% | viability, T/C [59] 5.36% | viability, T/C [60] 5.18% | viability, T/C [61] 2.85% | viability, T/C [62] 3.65% | viability, T/C [63] 4.21% | viability, T/C [64] 4.25% | viability, T/C [65] 4.38% | viability, T/C [66] 4.66% | viability, T/C [67] 2.87% | viability, T/C [68] 2.91% | viability, T/C [69] 3.44% | viability, T/C [70] 3.64% | viability, T/C [71] 4.02% | viability, T/C [72] 3.88%
inactive: viability, T/C [37] 18.6% | viability, T/C [38] 17.4% | viability, T/C [39] 15.6% | viability, T/C [40] 18.6% | viability, T/C [41] 19.4% | viability, T/C [42] 20.3%
< 0.949 nM: IC50 (second compound 0.000949 µM) | IC50 (second compound 0.003 µM) | IC50 (second compound 0.00949 µM) | IC50 (second compound 0.03 µM) | IC50 (second compound 0.0949 µM) | IC50 (second compound 0.3 µM)

CCc1c2c(nc3ccc(O)cc13)-c1cc3c(c(=O)n1C2)COC(=O)[C@]3(O)CC + CCn1c(-c2cc(N3CCN(C)CC3)cnc2C(C)OC)c2c3cc(ccc31)-c1csc(n1)CC(NC(=O)C1CC1C)C(=O)N1CCCC(N1)C(=O)OCC(C)(C)C2
< 0.949 nM: IC50 (second compound 0.000949 µM) | IC50 (second compound 0.003 µM) | IC50 (second compound 0.00949 µM) | IC50 (second compound 0.03 µM) | IC50 (second compound 0.0949 µM) | IC50 (second compound 0.3 µM)
inactive: viability, T/C [37] 25.9% | viability, T/C [38] 19.2% | viability, T/C [39] 16.8% | viability, T/C [40] 9.71% | viability, T/C [43] 13.2% | viability, T/C [44] 10.5%
active: viability, T/C [41] 6.4% | viability, T/C [42] 3.66% | viability, T/C [45] 8.66% | viability, T/C [46] 6.1% | viability, T/C [47] 4.22% | viability, T/C [48] 2.19% | viability, T/C [49] 6.6% | viability, T/C [50] 5.95% | viability, T/C [51] 4.92% | viability, T/C [52] 3.8% | viability, T/C [53] 2.17% | viability, T/C [54] 1.39% | viability, T/C [55] 4.12% | viability, T/C [56] 3.96% | viability, T/C [57] 3.68% | viability, T/C [58] 2.7% | viability, T/C [59] 1.39% | viability, T/C [60] 0.64% | viability, T/C [61] 3.25% | viability, T/C [62] 3.49% | viability, T/C [63] 2.57% | viability, T/C [64] 1.66% | viability, T/C [65] 1.51% | viability, T/C [66] 0.39% | viability, T/C [67] 2.45% | viability, T/C [68] 2.81% | viability, T/C [69] 2.34% | viability, T/C [70] 1.76% | viability, T/C [71] 0.8% | viability, T/C [72] 0.31%

C=CC(=O)Nc1cc(Nc2nccc(-c3cn(C)c4ccccc34)n2)c(OC)cc1N(C)CCN(C)C + CCn1c(-c2cccnc2C(C)OC)c2c3cc(ccc31)N1CCOC(CC(NC(=O)C(C(C)C)N(C)C(=O)C3(F)CCN(C(=O)C#CC(C)(C)N(C)C)CC3)C(=O)N3CCCC(N3)C(=O)OCC(C)(C)C2)C1
active: viability, T/C [5] 14.1% | viability, T/C [6] 3.07% | viability, T/C [10] 9.78% | viability, T/C [11] 6.6% | viability, T/C [12] 2.75% | viability, T/C [16] 9.64% | viability, T/C [17] 6.15% | viability, T/C [18] 7.2% | viability, T/C [21] 11.2% | viability, T/C [22] 7.87% | viability, T/C [23] 5.56% | viability, T/C [24] 3.05% | viability, T/C [27] 10.2% | viability, T/C [28] 9.54% | viability, T/C [29] 5.79% | viability, T/C [30] 2.57% | viability, T/C [32] 7.87% | viability, T/C [33] 7.46% | viability, T/C [34] 5.58% | viability, T/C [35] 3.92% | viability, T/C [36] 2.38%
< 3.16 nM: IC50 (second compound 0.000949 µM) | IC50 (second compound 0.003 µM) | IC50 (second compound 0.00949 µM) | IC50 (second compound 0.03 µM) | IC50 (second compound 0.0949 µM) | IC50 (second compound 0.3 µM)
inactive: viability, T/C [1] 15.6% | viability, T/C [2] 14% | viability, T/C [3] 12.5% | viability, T/C [4] 9.48% | viability, T/C [7] 13.4% | viability, T/C [8] 13.9% | viability, T/C [9] 13% | viability, T/C [13] 20% | viability, T/C [14] 12.7% | viability, T/C [15] 11.6% | viability, T/C [19] 12% | viability, T/C [20] 11.5% | viability, T/C [25] 10.1% | viability, T/C [26] 10.9% | viability, T/C [31] 12.4%
